From paper PMC5557372 (ChemMedChem, 2017)
Values after ≈ are worked out from the molar mass of the structure shown. Values joined by “and” are separate entries in the source; they are usually repeats but may differ in a detail not shown here. Equal values may be shown once. Read-outs that look alike come from different tables or passages of the source.

Tests used:
[1] = tested on: PC3 prostate cancer cells under hypoxia; test: Hypoxia cytotoxicity in microfluidic culture
Complex II (CII) = Complex II (CII) (Rattus norvegicus, UniProt P21913+Q641Z9+Q6PCT8); test: Complex II inhibition assay; type: biochemical; settings: for CII inhibition activity (in words): rat heart mitochondria; for LLE: Ligand-Lipophilicity Efficiency (LLE = pIC50-ClogP)
bovine CII = settings: read-out: bovine CII IC50; cited from earlier work
[2] = tested on: PC3 prostate cancer cells; test: MTS cytotoxicity assay, PC3; settings: Homo sapiens, 48 h, read-out: PC3 IC50
22Rv1 cells = test: Seahorse XF metabolic parameters; type: cell-based, human; settings: 22Rv1, 48 hour incubation
[3] = tested on: DU-145 prostate cancer cells; test: MTS cytotoxicity assay, DU-145; settings: Homo sapiens, DU-145, 48 h, read-out: DU-145 IC50
HEK293 cells = test: MTS cytotoxicity assay, HEK293; settings: for IC50: Homo sapiens, HEK293, 48 h, read-out: HEK293 IC50
[4] = target: Complex I (NADH ubiquinone-oxidoreductase) (Mus musculus, UniProt P03888+Q91WD5+Q9DC70); test: Complex I inhibition assay; type: biochemical; settings: for Selectivity Ratio (CII:CI): Complex I IC50 / Complex II IC50
[5] = tested on: 22Rv1 prostate cancer cells; test: MTS cytotoxicity assay, 22Rv1; settings: 22Rv1, 48 hours; plateau beyond
CII = settings: read-out: CII IC50, cited from earlier work
[6] = CII IC50, rat heart mitochondria, mean of n = 4 ± S.D.

Complex II (CII), sequence (P21913 31-282): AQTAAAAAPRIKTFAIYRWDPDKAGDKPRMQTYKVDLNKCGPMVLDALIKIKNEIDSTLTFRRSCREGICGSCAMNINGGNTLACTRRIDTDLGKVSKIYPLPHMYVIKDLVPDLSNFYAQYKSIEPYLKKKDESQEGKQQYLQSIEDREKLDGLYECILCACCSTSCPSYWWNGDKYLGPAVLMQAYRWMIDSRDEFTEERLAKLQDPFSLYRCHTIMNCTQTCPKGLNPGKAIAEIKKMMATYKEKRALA
Complex II (CII), sequence (Q641Z9 30-169 limits assumed): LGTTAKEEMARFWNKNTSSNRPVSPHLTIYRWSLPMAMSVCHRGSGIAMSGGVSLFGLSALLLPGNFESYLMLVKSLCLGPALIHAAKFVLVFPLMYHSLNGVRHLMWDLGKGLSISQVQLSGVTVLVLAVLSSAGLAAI
Complex II (CII), sequence (Q6PCT8 57-159): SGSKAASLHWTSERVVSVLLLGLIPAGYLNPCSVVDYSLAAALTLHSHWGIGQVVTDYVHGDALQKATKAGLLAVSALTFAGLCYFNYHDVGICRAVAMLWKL
Complex II (CII), sequence (Q920L2 35-656 partner): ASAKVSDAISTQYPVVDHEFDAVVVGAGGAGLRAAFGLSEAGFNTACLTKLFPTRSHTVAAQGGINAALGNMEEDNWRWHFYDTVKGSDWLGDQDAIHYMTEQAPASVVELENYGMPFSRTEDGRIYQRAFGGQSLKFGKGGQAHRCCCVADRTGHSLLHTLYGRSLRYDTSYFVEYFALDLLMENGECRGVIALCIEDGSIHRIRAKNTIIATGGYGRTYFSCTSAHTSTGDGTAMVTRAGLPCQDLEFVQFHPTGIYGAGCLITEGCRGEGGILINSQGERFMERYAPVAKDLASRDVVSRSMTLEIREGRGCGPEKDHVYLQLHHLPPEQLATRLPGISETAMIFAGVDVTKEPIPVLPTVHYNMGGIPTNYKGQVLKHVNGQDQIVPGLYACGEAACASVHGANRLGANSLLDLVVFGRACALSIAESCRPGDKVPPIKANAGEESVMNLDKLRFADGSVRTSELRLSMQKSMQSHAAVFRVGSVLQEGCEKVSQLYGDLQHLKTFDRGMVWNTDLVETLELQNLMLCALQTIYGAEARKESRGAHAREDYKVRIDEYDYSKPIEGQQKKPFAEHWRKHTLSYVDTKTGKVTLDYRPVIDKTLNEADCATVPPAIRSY

In the case of `CCCCCC(O)c1c(O)nc(OC)c(OC)c1O` (racemic) [compound 18, (rac)-3-(1-hydroxyhexyl)-5,6-dimethoxypyridine-2,4-diol], the “cytotoxic effect under hypoxia (in words)” value ([1]; up to 10 μM) is reported as “no cytotoxic effect”, the “CII inhibition activity (in words)” value (Complex II (CII)) is reported as “no CII inhibition activity” and the inhibition at 0.1 µM (Complex II (CII); read-out: inhibition of CII at 100 nM concentration) is reported as 0%.

In the case of `CCCCCC(O)c1cnc(OC)c(OC)c1O` (racemic) [compound 19, (rac)-5-(1-hydroxyhexyl)-2,3-dimethoxypyridin-4-ol], the “CII inhibition activity (in words)” value (Complex II (CII)) is reported as “inactive”.

In the case of `COc1nc(O)c(C(=O)c2ccco2)c(O)c1OC` [16a, (2,4-dihydroxy-5,6-dimethoxypyridin-3-yl)(furan-2-yl)methanone], the “CII inhibition activity (in words)” value (Complex II (CII)) is reported as “abrogates CII inhibition activity”.

For `CCCCC(=O)c1c(O)nc(OC)c(OC)c1O` [16b, 1-(2,4-dihydroxy-5,6-dimethoxypyridin-3-yl)pentan-1-one], the IC50 (Complex II (CII); [6]) is given as 345 nM and 346 nM, the LLE (Complex II (CII)) is given as 5.37 and the IC50 (bovine CII) is given as 96 nM.

For `CCCCCC(=O)c1c(O)nc(OC)c(OC)c1O` [16c, 1-(2,4-dihydroxy-5,6-dimethoxypyridin-3-yl)hexan-1-one], the cell death ([1]; 1 μM) was 12%, the IC50 [2] was 55 ± 9.4 µg/mL (≈ 204 µM) and the oxygen consumption rate (22Rv1 cells; 1-100 μM) was “substantially reduced in a dose-dependent manner”. For the same compound, the ATP production (22Rv1 cells; vs no treatment control) was “inhibition of ATP production”, the basal respiration (22Rv1 cells; vs no treatment control) was “reducing basal respiration” and the maximal respiration (22Rv1 cells; vs no treatment control) was “reduction of maximal respiration”. The IC50 [3] was 13 ± 1.6 µg/mL (≈ 48.3 µM), the IC50 (Complex II (CII); CII IC50 expressed in μg/mL, conversion of the nM IC50) was 64 nM and the LLE (Complex II (CII)) was 5.62. For the same compound, the IC50 (HEK293 cells) was 71 ± 5.2 µg/mL (≈ 264 µM), the “selectivity for DU-145 and 22Rv1 prostate cancer cells over HEK293” value (HEK293 cells; ratio of IC50 values) was roughly 7 fold and the IC50 [4] was greater than 10000 nM. For the same compound, the “Selectivity Ratio (CII:CI)” value [4] was greater than 156.

For `COc1nc(O)c(C(=O)CCCCOCc2ccccc2)c(O)c1OC` [16d, 5-(benzyloxy)-1-(2,4-dihydroxy-5,6-dimethoxypyridin-3-yl)pentan-1-one], the IC50 (Complex II (CII); [6]) was 281 ± 88.7 nM.

In the case of `COc1nc(O)c(C(=O)CCCCO)c(O)c1OC` [16e, 1-(2,4-dihydroxy-5,6-dimethoxypyridin-3-yl)-5-hydroxypentan-1-one], the IC50 (Complex II (CII); [6]) is reported as 3730 ± 1020 nM and the “fold greater CII activity than diazoxide” value (Complex II (CII); vs literature IC50 of diazoxide) is reported as 10 fold.

For `CCCCCCC(=O)c1c(O)nc(OC)c(OC)c1O` [16f, 1-(2,4-dihydroxy-5,6-dimethoxypyridin-3-yl)heptan-1-one], the IC50 (Complex II (CII); [6]) is listed as 283 nM, the LLE (Complex II (CII)) is listed as 4.57 and the IC50 (bovine CII) is listed as 20 nM.

In the case of `CCCCCCCC(=O)c1c(O)nc(OC)c(OC)c1O` [16g, 1-(2,4-dihydroxy-5,6-dimethoxypyridin-3-yl)octan-1-one], the LLE (Complex II (CII)) is reported as 4.89.

For `CCCCCCCCC(=O)c1c(O)nc(OC)c(OC)c1O` [16h, 1-(2,4-dihydroxy-5,6-dimethoxypyridin-3-yl)nonan-1-one], the LLE (Complex II (CII)) was 4.93.

For `CCCCCCCCCCC(=O)c1c(O)nc(OC)c(OC)c1O` [16j, 1-(2,4-dihydroxy-5,6-dimethoxypyridin-3-yl)undecan-1-one], the LLE (Complex II (CII)) was 4.32.

With `CCCCCCCCCCCCC(=O)c1c(O)nc(OC)c(OC)c1O` [16k, 1-(2,4-dihydroxy-5,6-dimethoxypyridin-3-yl)tridecan-1-one] the LLE (Complex II (CII)) was 3.76, the IC50 (Complex II (CII); read-out: CII IC50 expressed in μg/mL, conversion of the nM IC50) was 3.29 nM and the “concentration at which maximal cytotoxicity is reached” value [5] was 10000 ng/mL. For the same compound, the IC50 (HEK293 cells) was 28 ± 2 µg/mL (≈ 76.2 µM), the “selectivity for 22Rv1 over HEK293 cell line” value (HEK293 cells; ratio of IC50 values) was 14 fold and the “Selectivity Ratio (CII:CI)” value [4] was greater than 3030.

In the case of `COc1[nH]c(=O)c(C(=O)[C@@H](C)C[C@H](C)[C@@H](Cl)CCl)c(O)c1OC` [Atpenin A5, atpenin A5, reference compound], the IC50 (Complex II (CII); [6]) is given as 3.3 ± 2 nM and the IC50 (CII) is given as 3.6 to 10 nM.

For `O=C(O)CC(=O)O` [Malonate], the IC50 (CII) is listed as 40000 nM.

For `O=C(CC(=O)C(F)(F)F)c1cccs1` [Thenoyltrifluoroacetone], the IC50 (CII; control compound in CII assay kits) is listed as 30000 nM.

With `CCCCCC(=O)c1cnc(OC)c(OC)c1O` [compound 20, 1-(4-hydroxy-5,6-dimethoxypyridin-3-yl)hexan-1-one] the “CII inhibition activity at 100 nM concentration (in words)” value (Complex II (CII)) was “no activity”.

For `CCCCCC(OC)c1cnc(OC)c(OC)c1O` (stereo not shown) [compound 24, 2,3-dimethoxy-5-(1-methoxyhexyl)pyridin-4-ol], the “CII inhibition activity at 100 nM concentration (in words)” value (Complex II (CII)) was “no activity”.

For `Cc1c(C)c2c(c(C)c1OC(=O)CCC(=O)O)CC[C@@](C)(CCC[C@H](C)CCC[C@H](C)CCCC(C)C)O2` [α-Tocopheryl succinate, α -Tocopheryl succinate], the IC50 (CII) is given as 42000 nM.
